Reference: patent USRE49873E1, “APP specific bace inhibitors (ASBIs) and uses thereof” (BUCK INSTITUTE FOR RESEARCH ON AGING, priority 2012, dated 2024)
Entries after “also recorded” stand apart in the source; their conditions may differ.

Tests used:
[1] = tested on: sAPPβ production by SH-SY5Y cells; experiment: sAPPβ AlphaLisa in SH-SY5Y neuroblastoma cells; type: cell-based
Description: APP is processed through two major pathways: the non-amyloidogenic pathway involves α-secretase cleavage, proteolyzing APP into sAPPα and α-CTF (C83), while the amyloidogenic pathway starts with β-secretase cleavage, cleaving APP into sAPPβ and β-CTF (C99). The β-CTF is then cleaved by the γ-secretase, which produces Aβ and AICD. The ability of the ASBIs to inhibit the β-secretase processing of APP was tested in SH-SY5Y neuroblastoma cells that express APP. The sAPPβ fragment formed from the BACE cleavage product was measured using an AlphaLisa assay from Perkin-Elmer (Cat# A2132). […] Testing of a panel of bioflavonoids led to the identification of galangin as an ASBI.

[2] = tested on: APLP2-Gal4 transactivation in HEK293T cells; experiment: APLP2-Gal4/Mint3/TAZ transactivation assay; type: cell-based; conditions: Mint3 and TAZ present, galangin at 10 μM
Source text: FIGS. 7A and 7B illustrate inhibition of APP-Gal4 and APLP2-Gal4 transactivation by galangin. […] This transactivation was inhibited by Galangin and BACE inhibitor IV. FIG. 7B: Potent transactivation of transcription was also achieved with APLP2 fused to the Gal4 DNA binding domain when both Mint3 and TAZ were present. This transactivation was inhibited by Galangin and BACE inhibitor IV. […] The normalized luciferase activity is expressed as a percentage of the DMSO treated control (FIGS. 7A, 7B). Error bars indicate SEM. (*, p<0.05; **, p<0.01; ***, p<0.001; n=3, student t test).
This assay system is described by Orcholski et al. (2011) J. Alzheimers Dis., 23(4):689-699. Transactivation is achieved upon transfection with Mint3 and Taz. The ASBI was expected to inhibit only the transactivation of APP-Gal4, not that of APLP2-Gal4. For these experiments cells were co-transfected with a Gal4-luciferase reporter plasmid (to measure transactivation), a beta-galactosidase plasmid (to normalize for transfection efficiency), and the test plasmids identified. The normalized luciferase activity was expressed as fold induction over transcription by APP-Gal4 alone (FIG. 7A), or as fold induction over APLP2-Gal4 alone (FIG. 7B).
HEK293T cells were co-transfected with five plasmids: (1) pG5E1B-luc, 0.3 μg; (2) pCMV-LacZ, 0.1 μg; (3) pMst-APP (APP-Gal4) or pcDNA3.1-APLP2-Gal4, 0.3 μg; (4) pCMV5-Mint3, 1.0 μg; (5) pEF-N-FLAG-TAZ, 1.0 μg. Cells were harvested 48 hr after transfection in 0.2 ml per well Cell Culture Lysis Buffer (Promega), and their luciferase and β-galactosidase activities were determined with the Promega luciferase assay kit and the Promega β-galactosidase assay kit, respectively. The luciferase activity was standardized by the β-galactosidase activity to control for transfection efficiency and general effects on transcription. Transfections were performed at 80-90% cofluency in six-well plates using Lipofectamine 2000 (Invitrogen).

MBP-C125 APP = MBP-C125 APP (Homo sapiens, UniProt P05067); experiment: Nitrocellulose filter ligand-binding (ligand blot) assay; conditions: qualitative; UV and MALDI detection
Chain of MBP-C125 APP (P05067 646-770 limits assumed): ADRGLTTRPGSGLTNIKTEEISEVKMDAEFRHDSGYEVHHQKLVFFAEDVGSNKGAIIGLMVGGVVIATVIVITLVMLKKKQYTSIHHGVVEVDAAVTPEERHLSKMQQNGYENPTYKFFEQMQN
Description: To explore the interaction of ASBIs with APP a ligand blot technique was used, where MBP-C125 APP was dot blotted on a nitrocellulose blot and binding to the protein was detected upon treatment with the bioflavonoids. A nitrocellulose filter-binding assay with bovine serum albumin (BSA) was used as a control. The binding of bioflavonoids was determined using both UV and MALDI mass spectrometric analysis.

[3] = tested on: Aβ1-40 and Aβ1-42 levels in hippocampal/entorhinal cortical tissue; experiment: Pilot efficacy testing in PDAPP (J20) AD model mice, Aβ ELISA; type: in vivo; conditions: 40 mpk sc daily for 14 days, hippocampus and cortex
Description: Galangin and progalangin (PG-1) were dissolved in 10% solutol/15% DMSO/75% polyethylene glycol (PEG). Stock solutions were prepared at 10 mg/ml for each compound and 100 ul was injected subcutaneously daily for 14 days at a dose of 40 mkd. There were 5 PDAPP AD model J20 mice in both the galangin and progalangin groups, and 9 vehicle-only treated J20 controls. Mice were anesthetized, blood collected for plasma, and brain tissue collected as described above 2 hours after injection on the last day of treatment. The right hemibrain was further microdissected to isolate hippocampus and entorhinal cortex and this combined tissue was used for biochemical analysis. The remaining tissue and plasma was sent to IAS for compound level analysis.
Aβ1-42 and Aβ1-40 levels were determined using the hippocampal/entorhinal cortical tissue. Briefly, frozen tissue samples were weighed, and a 20% w/v sonicate prepared in 5M guandine-HCl/50 mM Tris, pH8. Sonication was performed with sample tubes in ice water, 4×5 seconds at 60 Hz, then 3×5 seconds at 80 Hz. Samples were then rotated at room temperature for 3 hours and frozen at −20° C. until assay. Invitrogen ELISA kits were used for Aβ1-40 and Aβ1-42 according to the manufacturer's instructions.

autophagy = conditions: Wen et al. (2012); cited from earlier work

With `O=c1c(O)c(-c2ccccc2)oc2cc(O)cc(O)c12` [Galangin] the APP levels [1] was “No effect on APP levels was detected”, the sAPPβ levels ([1]; 50 μM) was “decreased sAPPβ levels” and the APLP2-Gal4 transactivation [2] was “inhibited”. The APLP2-Gal4 transactivation ([2]; listed as galangin) was “inhibit; also recorded: inhibits APP-Gal4 and APLP2-Gal4”, the “binding to the APP substrate” value (MBP-C125 APP) was “shows binding to the APP substrate” and the “Aβ1-42 (Aβ42) levels in brain” value [3] was “unchanged”. For the same compound, the “Aβ1-40 (Aβ40) levels in brain” value ([3]; 40 mg/kg) was “some reduction of Aβ40; also recorded: slightly lower” and the induction of autophagy (autophagy) was “induce autophagy”.
